pIC50: −log10 of the molar value.
Assays:
[1] = test system: 3D human neural stem cell model of AD (ReNcell VM); assay: LDH assay in 3D human neural culture; format: cell-based; conditions: PB118 1 or 5 µM, 3 weeks
Method: Human precursor ReN cells were used to prepare 3D AD environment following previous work.^[ [30] ^] Briefly, for 3D layers of cells, BD Matrigel stock solution (BD Biosciences) was diluted with ReN cell differentiation medium (in 1:15 dilution) (chilled) followed by vertexing with the cell pellets for 20 s. A final cell concentration of ≈2 × 10^6 cells mL^−1 was used and this cell/ Matrigel mixtures were immediately transferred ([…] in each) into an Optilux clear bottom 96‐well plates (BD Biosciences). A thin layer ([…]) of 3D gels was formed at the bottom of the plates after incubating the plates at 37 °C for 1 h and the media were changed. For differentiation before drug treatment, 3D‐plated cells were cultured for 6 weeks, and the media were changed every 3–4 days. […] The cells were harvested for extraction using a lysis buffer mixture (Lysis 6 buffer with protease inhibitor; 1:100), followed by shaking for 1 h at cold room and centrifugation at 2 k rpm for 30 min. Supernatants were collected and further analyzed by MSD immunoassay kit and western blot analysis. The previously reported CytoTox‐ONE assay was performed to analyze cell viability by measuring the release of lactate dehydrogenase (LDH) following the manufacturer's guidelines (Promega; Madison, WI). Briefly, 50 µL of cell culture media was utilized and a 1:1 dilution of substrate was added. […]

HDAC1 = conditions: read-out: IC50 for HDAC1; enzyme inhibition assay; cited from earlier work
BV2 cells [2] = assay: Microglial Aβ phagocytosis, MSD Aβ peptide panel 1 (4G8); format: cell-based, murine; conditions: Aβ42 2 µg/mL + PB118 500 and 1000 nM, 6 h, vs control
Method: (§1) Briefly, for microglia‐related amyloid (Aβ) phagocytosis study, BV2 cells were seeded in a 6‐well confocal dish (400k cells mL^−1) and cultured overnight for ≈90% confluency. […] Then, media were collected to perform the LDH assay for cell cytotoxicity assessment. Cells were washed carefully with PBS (2x) and lysed by adding 200 µL of MPER++ (10 mL MPER with 1% protease cocktail inhibitor and 1% EDTA) in each well. Cell lysates were collected in 1.5 mL Eppendorf tube and centrifuged at 12 000 rpm at 4 °C for 15 min and supernatants were collected for further studies. Total protein was quantified using the BCA protein assay kit (Pierce). Briefly, BV2 cells were cultured following previously published methods and grew in DMEM media containing 10% heat‐inactivated fetal bovine serum, 2 mM L‐Glutamine, and 1% penicillin/streptomycin (Life Technologies). […] Subsequently, media were collected and applied to LDH to assess cell viability; cells were extensively washed with PBS and were lysed in MPER lysis buffer (MPER++) supplemented with EDTA‐free protease inhibitors (Roche), Halt phosphatase inhibitor cocktail (Thermo Fisher Scientific). Lysates were centrifuged as before (12 000 rpm at 4 °C for 15 min) and supernatants were collected for further analysis. […]

[3] = Stability in human serum (HPLC); format: in vitro ADME; conditions: 37 °C
[4] = set-up: method as in PMID 36213537; conditions: human liver microsomes; cited from earlier work
BV2 cells [5] = assay: Cold depolymerization assay; format: cell-based, murine; conditions: PB118 500 nM 24 h, on ice 10 and 20 min in comparison to 0 min
Method: To perform this assay, BV2 cells were seeded and cultured in an 8‐well Labtek chamber slide for overnight (100 k well^−1). […] Then cells were incubated on ice to induce microtubule depolymerization and were fixed using 4% PFA at different time points (0, 10, and 20 min). After that, cells were washed with PBS three times and blocked with blocking buffer (5% Donkey serum with 0.1% Triton‐X‐100 in PBS) and immunostaining was performed with these fixed cells against α‐tubulin (green) and acetylated α‐tubulin (red) antibodies. Appropriate secondary antibodies were used for visualization of these cells and images were captured in a Nikon C2 confocal microscopy.

[6] = test system: 3D human neural stem cell model of AD (ReNcell VM); assay: MSD phospho (Thr231)/total tau and Aβ (6E10) assay in 3D-AD culture; format: cell-based; conditions: 3 weeks
Method: Human precursor ReN cells were used to prepare 3D AD environment following previous work.^[ [30] ^] Briefly, for 3D layers of cells, BD Matrigel stock solution (BD Biosciences) was diluted with ReN cell differentiation medium (in 1:15 dilution) (chilled) followed by vertexing with the cell pellets for 20 s. A final cell concentration of ≈2 × 10^6 cells mL^−1 was used and this cell/ Matrigel mixtures were immediately transferred ([…] in each) into an Optilux clear bottom 96‐well plates (BD Biosciences). A thin layer ([…]) of 3D gels was formed at the bottom of the plates after incubating the plates at 37 °C for 1 h and the media were changed. For differentiation before drug treatment, 3D‐plated cells were cultured for 6 weeks, and the media were changed every 3–4 days. […] The cells were harvested for extraction using a lysis buffer mixture (Lysis 6 buffer with protease inhibitor; 1:100), followed by shaking for 1 h at cold room and centrifugation at 2 k rpm for 30 min. Supernatants were collected and further analyzed by MSD immunoassay kit and western blot analysis.
(§2) MSD immunoassays are quite robust and based on combining multiarray technology and electrochemiluminescence to identify numerous proteins in a single sample.

[7] = set-up: method as in PMID 36213537; conditions: cited from earlier work
HDAC6 enzyme = conditions: read-out: IC50 for HDAC6; enzyme inhibition assay; cited from earlier work
BV2 cells [8] = assay: Stereomicroscopic images of BV2 cell morphology; format: cell-based, murine
Text: Stereomicroscopic images were captured before and after the treatment of different concentrations of PB118 on BV2 cells to elucidate the cytotoxicity based on the cellular morphology of BV2 cells by using Invitrogen EVOS XL Core stereo microscope.

LPS induced BV2 cells = assay: Multiplex MSD-cytokine assay in LPS-induced BV2 cells; format: cell-based, murine; conditions: LPS 10 ng/mL + PB118 500/1000 nM, 24 h, media
Method: Briefly, for microglia‐related amyloid (Aβ) phagocytosis study, BV2 cells were seeded in a 6‐well confocal dish (400k cells mL^−1) and cultured overnight for ≈90% confluency. […] Then, media were collected to perform the LDH assay for cell cytotoxicity assessment. Cells were washed carefully with PBS (2x) and lysed by adding 200 µL of MPER++ (10 mL MPER with 1% protease cocktail inhibitor and 1% EDTA) in each well. Cell lysates were collected in 1.5 mL Eppendorf tube and centrifuged at 12 000 rpm at 4 °C for 15 min and supernatants were collected for further studies. Total protein was quantified using the BCA protein assay kit (Pierce). Briefly, BV2 cells were cultured following previously published methods and grew in DMEM media containing 10% heat‐inactivated fetal bovine serum, 2 mM L‐Glutamine, and 1% penicillin/streptomycin (Life Technologies). […] Subsequently, media were collected and applied to LDH to assess cell viability; cells were extensively washed with PBS and were lysed in MPER lysis buffer (MPER++) supplemented with EDTA‐free protease inhibitors (Roche), Halt phosphatase inhibitor cocktail (Thermo Fisher Scientific). Lysates were centrifuged as before (12 000 rpm at 4 °C for 15 min) and supernatants were collected for further analysis.
as §2

[9] = test system: human microglia HMC3 cells; assay: LDH assay and stereomicroscopy in HMC3 cells; format: cell-based; conditions: PB118 500 and 1000 nM, 6 h
Method: The previously reported CytoTox‐ONE assay was performed to analyze cell viability by measuring the release of lactate dehydrogenase (LDH) following the manufacturer's guidelines (Promega; Madison, WI). Briefly, 50 µL of cell culture media was utilized and a 1:1 dilution of substrate was added. […] Under the influence of the assay's substrate, resazurin was converted to resorufin, its fluorescent form, owing to LDH. The fluorometric results were used to compare the experiment group to the control group to assess the cytotoxicity of treated compounds.

BV2 cells [10] = assay: Immunocytochemistry (ICC) in BV2 cells; format: cell-based, murine
Method: ICC was performed following previously published articles.^[ [36] ^] Briefly, BV2 cells were seeded and grown overnight in a LabTek 8‐well chamber wells having ≈100 k cells well^−1. […] Discarded the media after 3 h, washed each well carefully with 150–300 µL of PBS (2x), and fixed with 4% PFA for 20 min at r.t. After that, washed each well again with 150–300 µL of PBS (2x) at r.t and incubated with blocking buffer (5% Donkey serum with 0.1% Triton‐X‐100 in PBS). Aspirate the blocking buffer and add 150 µL of primary antibody in each well and keep it at 4 °C for overnight shaking. Washed with washing buffer (PBS containing 0.1% Triton‐X‐100, 0.05% Tween‐20) twice and incubated with specific secondary antibody in each of the wells with gently shaking for 2 h at r.t. Discarded secondary solution and washed with washing buffer twice and incubated 10 min with 2 nM of Hoechst solution for another 10 min at r.t, washed with PBS (two times) and finally mounted with Prolong Gold antifade reagent, dried at r.t, and covered with a cover slip. Microscopic images were captured with these slides to understand the activity of HDAC6 toward tubulin/microtubule.

[11] = set-up: method as in PMID 36213537; conditions: C57BL/6 mice, i.p. 1 mg kg^-1, blood and brain at 30 min, 1 and 4 h; cited from earlier work
BV2 cells [12] = assay: LDH cytotoxicity assay in BV2 cells; format: cell-based, murine
Method: as §1

BV2 cells [13] = assay: Western blot of PB118-treated BV2 cell lysates; format: cell-based, murine; conditions: PB118 500 and 1000 nM, 6 h
Method: The previously described WB method was implemented to perform and analyze western blot membrane.^[ [34] ^] […] Proteins were separated by the electrophoresis using the 4–12% Bis‐Tris SDS‐PAGE Gel System (Invitrogen, Thermo Fisher Scientific), followed by membrane transfer to PVDF membranes (Invitrogen, Thermo Fischer scientific). Next, the membranes were blocked for 30 min with the Superblock (Thermo Scientific) and then incubated overnight with primary antibodies following the dilutions mentioned below. The membranes were then washed with TBST (four times) and incubated with appropriate secondary antibodies (1:10 000 dilution) at room temperature for 2 h. Then, membranes were incubated with Supersignal West Femto (Life Technologies), and the images for immunoreactivity were developed and visualized by the LICOR Odyssey Fc. Quantifications of proteins of interest were performed by Image J software.

46 CNS‐related targets = test system: 46 CNS‐related targets; set-up: method as in PMID 36213537; conditions: cited from earlier work
[14] = higher concentration of PB118 (1 or 5 µM tested)

O=C(NO)c1ccc(CN2CCCCc3ccccc32)c(F)c1 [PB118]
cytotoxicity (LDH assay) [1]: no cytotoxicity
pIC50 (HDAC1): 5.11
Aβ42 levels in cell lysates (phagocytosis) (BV2 cells [2]): significant increase
decay constant in human serum [3]: 6.3e-06 s⁻¹
mean lifetime in human serum [3]: 43.6 h
compound remaining in human serum ([3]; after 24 h, HPLC): ≈ 57%
half-life (t1/2) in human serum ([3]; calculated by formula of Figure S2b): 30.2 h
half-life at 5 mM ([3]; human, calculated by formula of Figure S2b, read-out: half-life (t1/2) in human serum (converted)): ~30.2 h
half-life in human microsomal liver [4]: 1.13 h
acetylated α-tubulin protein expression in cold depolymerization condition (BV2 cells [5]): significantly higher
Aβ42 generation ([6]; PB118 1 or 5 µM): significantly reduced
p-tau (Thr231) level [6, 14]: significantly reduced
total tau level [6, 14]: significantly reduced
binding with human plasma [7]: 99.4%
pIC50 (HDAC6 enzyme): 8.25
cell morphology (stereomicroscopic images) (BV2 cells [8]; LPS +/- PB118, 24 h): no significant difference of cell morphology
cell morphology (microscopic images before and after treatment) (BV2 cells [8]; PB118 with or without Aβ42, 6 h): no significant change in cell morphology
IL-12p-70 level (LPS induced BV2 cells): significant reductions
KC/GRO (CXCL1) level (LPS induced BV2 cells): significant reductions
interleukin-6 (IL-6) level (LPS induced BV2 cells): significant reductions
morphology and cytotoxicity (stereomicroscopy, LDH assay) [9]: no detrimental change in morphology or cytotoxicity
HDAC6 expression (ICC) (BV2 cells [10]; LPS 10 ng/mL + PB118 500 nM): lack of significant change
α-tubulin network (ICC) (BV2 cells [10]; LPS 10 ng/mL + PB118 500 nM): lack of significant change
acetylated tubulin levels (ICC) with or without LPS (BV2 cells [10]; PB118 500 nM with or without LPS 10 ng/mL): no change
acetyl α-tubulin expression (ICC) (BV2 cells [10]; PB118 500 nM, 3 h, vs vehicle): higher compared to vehicle
BBB crossing (brain/plasma study) [11]: BBB crossing ability
cell viability (LDH assay) (BV2 cells [12]; LPS 10 ng/mL +/- PB118 500 or 1000 nM, 24 h, treated vs control): No significant difference
cytotoxicity (LDH assay) (BV2 cells [12]; PB118 500 and 1000 nM with or without Aβ42 (2 µg/mL), 6 h): no significant cytotoxicity
HDAC6 expression (WB, normalized to β-actin) (BV2 cells [13]): non‐significant change
Ac-α-tubulin protein level (WB, normalized to α-tubulin) (BV2 cells [13]; vs control): significant increase
off-target binding profile (46 CNS‐related targets): good off‐target binding profile
